From the NIST ThermoML archive (doi:10.1016/j.fluid.2015.07.030)

Test: xn = mol fraction of the nth substance listed
Settings: 95.99 kPa, Liquid, Vibrating tube method

OCCOCCOCCO [triethylene glycol] + O
mass density [kg/m3]
Settings | 293.15 K | 298.15 K | 303.15 K | 308.15 K | 313.15 K
x2 = 0 | 1123.12 | 1119.01 | 1114.79 | 1110.81 | 1106.7
x2 = 0.1056 | 1122.61 | 1118.31 | 1114.09 | 1109.99 | 1105.84
x2 = 0.2069 | 1121.88 | 1117.53 | 1113.37 | 1109.16 | 1105.25
x2 = 0.3103 | 1120.77 | 1116.52 | 1112.38 | 1108.31 | 1104.34
x2 = 0.4843 | 1118.69 | 1114.57 | 1110.18 | 1106.08 | 1101.98
x2 = 0.5016 | 1118.43 | 1114.12 | 1109.85 | 1105.68 | 1101.69
x2 = 0.5952 | 1116.29 | 1111.83 | 1107.57 | 1103.19 | 1099.18
x2 = 0.6015 | 1116.07 | 1111.61 | 1107.35 | 1102.97 | 1098.96
x2 = 0.6787 | 1112.29 | 1107.99 | 1103.97 | 1099.53 | 1095.62
x2 = 0.7835 | 1102.7 | 1098.52 | 1094.74 | 1090.2 | 1086.93
x2 = 0.8183 | 1096.95 | 1092.99 | 1089.46 | 1084.98 | 1081.89
x2 = 0.8472 | 1090.49 | 1086.81 | 1083.32 | 1078.84 | 1076.08
x2 = 0.8719 | 1083.52 | 1080.07 | 1076.78 | 1072.37 | 1069.93
x2 = 0.8925 | 1076.28 | 1073.04 | 1069.94 | 1065.64 | 1063.47
x2 = 0.9106 | 1068.64 | 1065.62 | 1062.7 | 1058.54 | 1056.6
x2 = 0.9254 | 1061.24 | 1058.41 | 1055.66 | 1051.66 | 1049.89
x2 = 0.9303 | 1058.23 | 1055.05 | 1052.47 | 1049.13 | 1047.41
x2 = 0.939 | 1053.42 | 1050.36 | 1048.08 | 1044.27 | 1042.63
x2 = 0.951 | 1045.41 | 1042.85 | 1040.42 | 1036.82 | 1035.27
x2 = 0.9599 | 1037.69 | 1036.35 | 1034.04 | 1030.61 | 1029.11
x2 = 0.9707 | 1029.87 | 1027.7 | 1025.28 | 1022.68 | 1019.99
x2 = 0.979 | 1021.78 | 1019.75 | 1017.72 | 1014.8 | 1013.28
x2 = 0.9866 | 1013.57 | 1011.61 | 1009.56 | 1007.37 | 1005.16
x2 = 0.9936 | 1005.7 | 1003.82 | 1001.99 | 999.97 | 997.49
